# Laboratory results: patent US9156872B2, “2′-azido substituted nucleoside derivatives and methods of use thereof for the treatment of viral diseases” (priority 2011, dated 2015)
# Tested on: HCV replicon cells
# Experiment: Cell-based HCV replicon assay (replicon RNA by Taqman real time PCR)
# Details: Hepatitis C virus, 72 h, HCV replicon 1b, cells harvested on day 3; read-out: 1b EC50
row,SMILES,EC50 [nM]
1,"C[C@H](NP(=O)(O)OC[C@H]1O[C@@H](n2ccc(=O)[nH]c2=O)[C@](C)(N=[N+]=[N-])[C@@H]1O)C(=O)OC1CCCCC1 (single isomer, unassigned) [Compound 329]",> 100000

# Same assay, conditions: Hepatitis C virus, 72 h, read-out: 1b EC50
row,SMILES,EC50 [nM]
1,"COc1nc(N)nc2c1ncn2[C@@H]1O[C@H](COP(=O)(N[C@@H](C)C(=O)OCC(C)C)Oc2ccccc2)C(O)[C@@]1(C)N=[N+]=[N-] (single isomer, unassigned) [Compound 276]",2700
2,"COc1nc(N)nc2c1ncn2[C@@H]1O[C@H](COP(=O)(N[C@@H](C)C(=O)OC(C)C)Oc2ccc(Cl)c(Cl)c2)[C@@H](O)[C@@]1(C)N=[N+]=[N-] (single isomer, unassigned) [Compound 282]",5000
3,"CCCOC(=O)[C@H](C)NP(=O)(OC[C@H]1O[C@@H](n2cnc3c(OC)nc(N)nc32)[C@](C)(N=[N+]=[N-])C1O)Oc1ccccc1 (single isomer, unassigned) [Compound 287]",900
4,"COc1nc(N)nc2c1ncn2[C@@H]1O[C@H](COP(=O)(N[C@@H](C)C(=O)OC(C)C)Oc2ccc(Cl)cc2)[C@@H](O)[C@@]1(C)N=[N+]=[N-] (single isomer, unassigned) [Compound 293]",5700
5,"COc1nc(N)nc2c1ncn2[C@@H]1O[C@H](COP(=O)(N[C@@H](C)C(=O)OCC(C)C)Oc2ccc(Cl)cc2)[C@@H](O)[C@@]1(C)N=[N+]=[N-] (single isomer, unassigned) [Compound 295]",200
6,"CCCCOC(=O)[C@H](C)NP(=O)(OC[C@H]1O[C@@H](n2cnc3c(OC)nc(N)nc32)[C@](C)(N=[N+]=[N-])C1O)Oc1cccc2ccccc12 (single isomer, unassigned) [Compound 297]",100
7,"C[C@H](NP(=O)(OC[C@H]1O[C@@H](n2ccc(=O)[nH]c2=O)[C@](C)(N=[N+]=[N-])[C@@H]1O)Oc1ccccc1)C(=O)O[C@H](C)c1ccccc1 (single isomer, unassigned) [Compound 302]",24900
8,"CCOc1nc(N)nc2c1ncn2[C@@H]1O[C@H](COP(=O)(N[C@@H](C)C(=O)OC)Oc2ccccc2Cl)[C@@H](O)[C@@]1(C)N=[N+]=[N-] (single isomer, unassigned) [Compound 309]",570
9,"CCOc1nc(N)nc2c1ncn2[C@@H]1O[C@H](COP(=O)(N[C@@H](C)C(=O)OC2CCCCC2)Oc2ccc(Cl)cc2)[C@@H](O)[C@@]1(C)N=[N+]=[N-] (single isomer, unassigned) [Compound 313]",660
10,"COC(=O)[C@H](C)NP(=O)(OC[C@H]1O[C@@H](n2ccc(N)nc2=O)[C@](C)(N=[N+]=[N-])[C@@H]1O)Oc1ccccc1Cl (single isomer, unassigned) [Compound 330]",12000

# Same assay, conditions: read-out: 1b EC50
row,SMILES,EC50 [nM]
1,"COc1nc(N)nc2c1ncn2[C@@H]1O[C@H](COP(=O)(N[C@@H](C)C(=O)OC2CCCCC2)Oc2ccccc2)[C@@H](O)[C@@]1(C)N=[N+]=[N-] (single isomer, unassigned) [Compound 274]",8700
2,"COc1nc(N)nc2c1ncn2[C@@H]1O[C@H](COP(=O)(N[C@@H](C)C(=O)OC2CCCCC2)Oc2ccccc2)[C@@H](O)[C@@]1(C)N=[N+]=[N-] (single isomer, unassigned) [Compound 275]",1500
3,"COc1nc(N)nc2c1ncn2[C@@H]1O[C@H](COP(=O)(N[C@@H](C)C(=O)OCC(C)C)Oc2ccccc2)C(O)[C@@]1(C)N=[N+]=[N-] (single isomer, unassigned) [Compound 277]",2700
4,"COc1nc(N)nc2c1ncn2[C@@H]1O[C@H](COP(=O)(N[C@@H](C)C(=O)OCc2ccccc2)Oc2ccccc2)[C@@H](O)[C@@]1(C)N=[N+]=[N-] (single isomer, unassigned) [Compound 278]",7300
5,"COc1nc(N)nc2c1ncn2[C@@H]1O[C@H](COP(=O)(N[C@@H](C)C(=O)OCc2ccccc2)Oc2ccccc2)[C@@H](O)[C@@]1(C)N=[N+]=[N-] (single isomer, unassigned) [Compound 279]",1000
6,"COc1nc(N)nc2c1ncn2[C@@H]1O[C@H](COP(=O)(N[C@@H](C)C(=O)OC(C)C)Oc2ccccc2Cl)[C@@H](O)[C@@]1(C)N=[N+]=[N-] (single isomer, unassigned) [Compound 280]",5000
7,"COc1nc(N)nc2c1ncn2[C@@H]1O[C@H](COP(=O)(N[C@@H](C)C(=O)OC(C)C)Oc2ccccc2Cl)[C@@H](O)[C@@]1(C)N=[N+]=[N-] (single isomer, unassigned) [Compound 281]",12000
8,"COc1nc(N)nc2c1ncn2[C@@H]1O[C@H](COP(=O)(N[C@@H](C)C(=O)OC(C)C)Oc2ccc(Cl)c(Cl)c2)[C@@H](O)[C@@]1(C)N=[N+]=[N-] (single isomer, unassigned) [Compound 283]",8400
9,"CCCOC(=O)[C@H](C)NP(=O)(OC[C@H]1O[C@@H](n2cnc3c(OC)nc(N)nc32)[C@](C)(N=[N+]=[N-])C1O)Oc1ccccc1 (single isomer, unassigned) [Compound 288]",900
10,"CCOC(=O)[C@H](C)NP(=O)(OC[C@H]1O[C@@H](n2cnc3c(OC)nc(N)nc32)[C@](C)(N=[N+]=[N-])[C@@H]1O)Oc1ccc(Cl)cc1 (single isomer, unassigned) [Compound 289]",700
11,"CCOC(=O)[C@H](C)NP(=O)(OC[C@H]1O[C@@H](n2cnc3c(OC)nc(N)nc32)[C@](C)(N=[N+]=[N-])[C@@H]1O)Oc1ccc(Cl)cc1 (single isomer, unassigned) [Compound 290]",800
12,"COc1nc(N)nc2c1ncn2[C@@H]1O[C@H](COP(=O)(N[C@@H](C)C(=O)OCC(C)(C)C)Oc2ccccc2)C(O)[C@@]1(C)N=[N+]=[N-] (single isomer, unassigned) [Compound 291]",2400
13,"COc1nc(N)nc2c1ncn2[C@@H]1O[C@H](COP(=O)(N[C@@H](C)C(=O)OCC(C)(C)C)Oc2ccccc2)C(O)[C@@]1(C)N=[N+]=[N-] (single isomer, unassigned) [Compound 292]",400
14,"COc1nc(N)nc2c1ncn2[C@@H]1O[C@H](COP(=O)(N[C@@H](C)C(=O)OC(C)C)Oc2ccc(Cl)cc2)[C@@H](O)[C@@]1(C)N=[N+]=[N-] (single isomer, unassigned) [Compound 294]",3400
15,"COc1nc(N)nc2c1ncn2[C@@H]1O[C@H](COP(=O)(N[C@@H](C)C(=O)OCC(C)C)Oc2ccc(Cl)cc2)[C@@H](O)[C@@]1(C)N=[N+]=[N-] (single isomer, unassigned) [Compound 296]",100
16,"CCCCOC(=O)[C@H](C)NP(=O)(OC[C@H]1O[C@@H](n2cnc3c(OC)nc(N)nc32)[C@](C)(N=[N+]=[N-])C1O)Oc1cccc2ccccc12 (single isomer, unassigned) [Compound 298]",100

row,SMILES,EC50 [nM]
1,"C[C@H](NP(=O)(OC[C@H]1O[C@@H](n2ccc(=O)[nH]c2=O)[C@](C)(N=[N+]=[N-])[C@@H]1O)Oc1ccccc1)C(=O)OCc1ccccc1 (single isomer, unassigned) [Compound 300]",29000
2,"C[C@H](NP(=O)(OC[C@H]1O[C@@H](n2ccc(=O)[nH]c2=O)[C@](C)(N=[N+]=[N-])[C@@H]1O)Oc1ccccc1)C(=O)OCc1ccccc1 (single isomer, unassigned) [Compound 301]",2700
3,"C[C@H](NP(=O)(OC[C@H]1O[C@@H](n2ccc(=O)[nH]c2=O)[C@](C)(N=[N+]=[N-])[C@@H]1O)Oc1ccccc1)C(=O)O[C@H](C)c1ccccc1 (single isomer, unassigned) [Compound 303]",46900
4,"CCOc1nc(N)nc2c1ncn2[C@@H]1O[C@H](COP(=O)(N[C@@H](C)C(=O)OC)Oc2ccccc2Cl)[C@@H](O)[C@@]1(C)N=[N+]=[N-] (single isomer, unassigned) [Compound 310]",930
5,"CCOc1nc(N)nc2c1ncn2[C@@H]1O[C@H](COP(=O)(N[C@@H](C)C(=O)OC)Oc2ccc(Cl)cc2)[C@@H](O)[C@@]1(C)N=[N+]=[N-] (single isomer, unassigned) [Compound 311]",900
6,"CCOc1nc(N)nc2c1ncn2[C@@H]1O[C@H](COP(=O)(N[C@@H](C)C(=O)OC)Oc2ccc(Cl)cc2)[C@@H](O)[C@@]1(C)N=[N+]=[N-] (single isomer, unassigned) [Compound 312]",2200
7,"CCOc1nc(N)nc2c1ncn2[C@@H]1O[C@H](COP(=O)(N[C@@H](C)C(=O)OC2CCCCC2)Oc2ccc(Cl)cc2)[C@@H](O)[C@@]1(C)N=[N+]=[N-] (single isomer, unassigned) [Compound 314]",1300
8,"CCOc1nc(N)nc2c1ncn2[C@@H]1O[C@H](COP(=O)(N[C@@H](C)C(=O)OC(C)C)Oc2ccccc2Cl)[C@@H](O)[C@@]1(C)N=[N+]=[N-] (single isomer, unassigned) [Compound 315]",9200
9,"CCOc1nc(N)nc2c1ncn2[C@@H]1O[C@H](COP(=O)(N[C@@H](C)C(=O)OC(C)C)Oc2ccccc2Cl)[C@@H](O)[C@@]1(C)N=[N+]=[N-] (single isomer, unassigned) [Compound 316]",27900
10,"COC(=O)[C@H](C)NP(=O)(OC[C@H]1O[C@@H](n2ccc(=O)[nH]c2=O)[C@](C)(N=[N+]=[N-])[C@@H]1O)Oc1ccc(Cl)cc1 (single isomer, unassigned) [Compound 326]",500
11,"COC(=O)[C@H](C)NP(=O)(OC[C@H]1O[C@@H](n2ccc(=O)[nH]c2=O)[C@](C)(N=[N+]=[N-])[C@@H]1O)Oc1ccc(Cl)cc1 (single isomer, unassigned) [Compound 327]",1700
12,"COC(=O)[C@H](C)NP(=O)(OC[C@H]1O[C@@H](n2ccc(N)nc2=O)[C@](C)(N=[N+]=[N-])[C@@H]1O)Oc1ccccc1Cl (single isomer, unassigned) [Compound 331]",10000
13,"CC(C)OC(=O)[C@H](C)NP(=O)(OC[C@H]1O[C@@H](n2ccc(N)nc2=O)[C@](C)(N=[N+]=[N-])[C@@H]1O)Oc1ccccc1Cl (single isomer, unassigned) [Compound 332]",20000
14,"CC(C)OC(=O)[C@H](C)NP(=O)(OC[C@H]1O[C@@H](n2ccc(N)nc2=O)[C@](C)(N=[N+]=[N-])[C@@H]1O)Oc1ccccc1Cl (single isomer, unassigned) [Compound 333]",1300
15,"CC(C)OC(=O)[C@H](C)NP(=O)(OC[C@H]1O[C@@H](n2ccc(N)nc2=O)[C@](C)(N=[N+]=[N-])[C@@H]1O)Oc1ccc2c(c1)OCO2 (single isomer, unassigned) [Compound 334]",13000
